# Reference: US11957684B2, “Treatment of heavy menstrual bleeding associated with uterine fibroids” (Sumitomo Pharma Switzerland GmbH, priority 2016, dated 2024)
# Values joined by “and” are separate entries in the source; they are usually repeats but may differ in a detail not shown here. Equal values may be shown once. Read-outs that look alike come from different tables or passages of the source.
# Key:
# [1] = system: endometriosis-associated pain; type: in vivo, human
# Method: Subjects assessed and recorded their own quality of life (QOL) using the EHP-30 once a month during the study visit. As used in the examples, the VAS score was evaluated using a 100 mm scale. For pain intensity, the scale was anchored by “no pain” (score of 0) and “pain as bad as you can imagine” (score of 100). […] The above items were evaluated using a patient diary that was distributed by the sponsor. Subjects filled out the patient diary every day during the treatment period or until early termination. If taking prohibited analgesics, subjects recorded this fact in the patient diary along with the accompanying pain symptoms before use of analgesics. As used in the examples, pain during menstruation and pelvic pain unrelated to menstruation were evaluated using scores on the M-B&B and B&B. The M-B&B scores were recorded by subjects on the patient diary supplied by the sponsor. Subjects filled out the patient diary every day during the treatment period or until early termination. If taking prohibited analgesics, subjects recorded this fact in the patient diary along with the accompanying pain symptoms before use of analgesics. The investigator or subinvestigator assessed each patient's pain through interviews and filled out a B&B once a month. The items that were assessed are shown below. The M-B&B score included: dysmenorrhea (severe, moderate, mild, no pain, or no menstruation); pelvic pain (severe, moderate, mild, or no pain); deep dyspareunia (severe, moderate, mild, no pain, or no intercourse). The B&B score included: dysmenorrhea (severe, moderate, mild, none, or not applicable); dyspareunia (severe, moderate, mild, none, or not applicable); pelvic pain (severe, moderate, mild, or none); pelvic tenderness (severe, moderate, mild, or none); and induration (severe, moderate, mild, or none). As used in the examples, the EHP-30 score was obtained by subjects assessing and recording their own QOL using the EHP-30 questionnaire.
# FIG. 10 = test: FIG. 10
# Method: Table printed on a drawing sheet, FIG. 10
# The patent's description of the figure: FIG. 10 is a table of urine PK parameters for Cohort 7 in accordance with Example 4.
# First reader's note: Urine PK parameters for Cohort 7 (fed vs fasted, 40 mg); each column is a dosing arm and the rows give summary statistics per parameter.
# [2] = 40 mg, end of 84 consecutive days
structure (smiles),measurement,setting,value
"CONC(=O)Nc1ccc(-c2sc3c(c2CN(C)C)c(=O)n(-c2ccc(OC)nn2)c(=O)n3Cc2c(F)cccc2F)cc1 [Compound 1, N-(4-(1-(2,6-difluorobenzyl)-5-((dimethylamino)methyl)-3-(6-methoxy-3-pyridazinyl)-2,4-dioxo-1,2,3,4-tetrahydrothieno[2,3-d]pyrimidin-6-yl)phenyl)-N′-methoxyurea]","change from baseline in mean M-B&B score, deep dyspareunia","[1]; 20 mg, end of treatment",−0.210±0.4936
same,"change from baseline in mean M-B&B score, dysmenorrhea","[1]; 20 mg, end of treatment",−0.795±0.6490
same,"change from baseline in mean VAS, dysmenorrhea","[1]; 20 mg, end of treatment",−19.825±20.4332 mm
same,"change from baseline in mean VAS, dyspareunia","[1]; 20 mg, end of treatment",−3.553±11.5544 mm
same,"change from baseline in mean VAS, pelvic pain","[1]; 20 mg, end of treatment",−9.032 mm and −9.032±11.8432 mm
same,change from baseline in proportion of days with usage of pain killer,"[1]; 20 mg, end of treatment",−7.36±14.585%
same,"change in proportion of days without pain (M-B&B), deep dyspareunia","[1]; 20 mg, end of treatment",18.04±47.892%
same,"change in proportion of days without pain (M-B&B), dysmenorrhea","[1]; 20 mg, end of treatment",50.92±41.641%
same,"change in proportion of days without pain (M-B&B), pelvic pain","[1]; 20 mg, end of treatment",17.75±30.339%
same,"change in proportion of days without pain (VAS), dysmenorrhea","[1]; 20 mg, end of treatment",50.91±42.602%
same,"change in proportion of days without pain (VAS), dyspareunia","[1]; 20 mg, end of treatment",15.14±47.793%
same,"change in proportion of days without pain (VAS), pelvic pain","[1]; 20 mg, end of treatment",21.50±28.859%
same,"mean VAS score, dysmenorrhea","[1]; 20 mg, end of treatment",7.878±14.2406 mm
same,"mean VAS score, dyspareunia","[1]; 20 mg, end of treatment",6.363±13.1847 mm
same,"mean VAS score, pelvic pain","[1]; 20 mg, end of treatment",6.557±11.2902 mm
same,subjects who achieved amenorrhea,"[1]; 20 mg, end of treatment",54.0%
same,"subjects without pain in M-B&B score, dysmenorrhea","[1]; 20 mg, end of treatment",61.0%
same,"subjects without pain in M-B&B score, dyspareunia","[1]; 20 mg, end of treatment",52.5%
same,"subjects without pain in M-B&B score, pelvic pain","[1]; 20 mg, end of treatment",34.0%
same,"subjects without pain in VAS score, dysmenorrhea","[1]; 20 mg, end of treatment",59.0%
same,"subjects without pain in VAS score, dyspareunia","[1]; 20 mg, end of treatment",47.5%
same,"subjects without pain in VAS score, pelvic pain","[1]; 20 mg, end of treatment",20%
same,"change from baseline in pelvic pain, dysmenorrhea, and dyspareunia in mean VAS","[1]; 40 mg, 84 consecutive days",−10.418±11.0171 mm
same,"change from baseline in mean VAS, dysmenorrhea","[1]; 40 mg, Day 1-28",−10.979±14.8545 mm
same,"change from baseline in mean VAS, dyspareunia","[1]; 40 mg, Day 1-28",2.995±9.7916 mm
same,"change from baseline in mean VAS, pelvic pain","[1]; 40 mg, Day 1-28",−3.761±7.8831 mm
same,"mean VAS score, dysmenorrhea","[1]; 40 mg, Day 1-28",19.452±19.1065 mm
same,"mean VAS score, dyspareunia","[1]; 40 mg, Day 1-28",9.522±13.6408 mm
same,"mean VAS score, pelvic pain","[1]; 40 mg, Day 1-28",11.498±13.2341 mm
same,"change from baseline in mean VAS, dysmenorrhea","[1]; 40 mg, Day 57-84",−30.094±17.2623 mm
same,"change from baseline in mean VAS, dyspareunia","[1]; 40 mg, Day 57-84",−1.860±10.3161 mm
same,"change from baseline in mean VAS, pelvic pain","[1]; 40 mg, Day 57-84",−10.537±11.0516 mm
same,"mean VAS score, dysmenorrhea","[1]; 40 mg, Day 57-84",0.569±2.5367 mm
same,"mean VAS score, dyspareunia","[1]; 40 mg, Day 57-84",4.126±7.9652 mm
same,"mean VAS score, pelvic pain","[1]; 40 mg, Day 57-84",4.785±8.9162 mm
same,"change from baseline in mean VAS, dysmenorrhea","[1]; 40 mg, Day 141-168",−31.210±17.7668 mm
same,"change from baseline in mean VAS, dyspareunia","[1]; 40 mg, Day 141-168",−0.830±13.6774 mm
same,"mean VAS score, dysmenorrhea","[1]; 40 mg, Day 141-168",0.430±2.3141 mm
same,"mean VAS score, dyspareunia","[1]; 40 mg, Day 141-168",3.531±9.6053 mm
same,"mean VAS score, pelvic pain","[1]; 40 mg, Day 141-168",2.979±6.1704 mm
same,"change from baseline in EHP-30, Self-image","[1]; 40 mg, Week 24",−9.68±17.744
same,"change from baseline in EHP-30, control & powerlessness","[1]; 40 mg, Week 24",−20.88±21.676
same,"change from baseline in EHP-30, emotional well-being","[1]; 40 mg, Week 24",−13.26±16.316
same,"change from baseline in EHP-30, pain","[1]; 40 mg, Week 24",−25.94±19.902
same,"change from baseline in EHP-30, social support","[1]; 40 mg, Week 24",−10.28±17.109
same,"change from baseline in mean B&B score, dysmenorrhea","[1]; 40 mg, Week 24",−2.0±0.61
same,"change from baseline in mean B&B score, dyspareunia","[1]; 40 mg, Week 24",−0.1±0.43
same,"change from baseline in mean B&B score, pelvic pain","[1]; 40 mg, Week 24",−1.0±0.86
same,"change from baseline in mean B&B score, pelvic tenderness","[1]; 40 mg, Week 24",−1.0±0.92
same,"subjects without pain in B&B score, dysmenorrhea","[1]; 40 mg, Week 24",94.3%
same,"subjects without pain in B&B score, pelvic pain","[1]; 40 mg, Week 24",58.6%
same,change from baseline in proportion of days without dysmenorrhea (M-B&B),"[1]; 40 mg, end of 28 consecutive days",73.98±29.567%
same,change from baseline in mean EHP-30 score,[1]; [2],−25.94±19.902
same,"change from baseline in mean M-B&B score, deep dyspareunia",[1]; [2],−0.097±0.4325
same,"change from baseline in mean M-B&B score, dysmenorrhea",[1]; [2],−1.144±0.5014
same,"change from baseline in mean M-B&B score, pelvic pain",[1]; [2],−0.400±0.4491
same,change from baseline in proportion of days without deep dyspareunia (M-B&B),[1]; [2],8.15±43.20%
same,change from baseline in proportion of days without dysmenorrhea (VAS),[1]; [2],78.45±29.838%
same,change from baseline in proportion of days without pelvic pain (M-B&B),[1]; [2],31.00±36.746%
same,change from baseline in proportion of days without pelvic pain (VAS),[1]; [2],36.59±34.849%
same,subjects without dysmenorrhea (B&B),[1]; [2],94.3%
same,subjects without dyspareunia (M-B&B),[1]; [2],51.3%
same,"change from baseline in maximum M-B&B score, dysmenorrhea","[1]; 40 mg, end of treatment",−2.0±0.76
same,"change from baseline in maximum M-B&B score, dyspareunia","[1]; 40 mg, end of treatment",−0.1±0.54
same,"change from baseline in maximum M-B&B score, pelvic pain","[1]; 40 mg, end of treatment",−1.0±0.89
same,"change from baseline in maximum VAS, dysmenorrhea","[1]; 40 mg, end of treatment",−57.1±25.00 mm
same,"change from baseline in maximum VAS, dyspareunia","[1]; 40 mg, end of treatment",−2.5±17.17 mm
same,"change from baseline in maximum VAS, pelvic pain","[1]; 40 mg, end of treatment",−49.7±26.47 mm
same,"change from baseline in mean M-B&B score, deep dyspareunia","[1]; 40 mg, end of treatment",−0.097±0.4325
same,"change from baseline in mean M-B&B score, dysmenorrhea","[1]; 40 mg, end of treatment",−1.144±0.5014
same,"change from baseline in mean M-B&B score, pelvic pain","[1]; 40 mg, end of treatment",−0.400±0.4491
same,"change from baseline in mean VAS, dysmenorrhea","[1]; 40 mg, end of treatment",−29.513±17.5379 mm
same,"change from baseline in mean VAS, dyspareunia","[1]; 40 mg, end of treatment",−0.925±12.0373 mm
same,"change from baseline in mean VAS, pelvic pain","[1]; 40 mg, end of treatment",−11.924 mm and −11.924±11.2609 mm
same,change from baseline in mean score of amount of bleeding (0 to 5),"[1]; 40 mg, end of treatment",−2.207±0.8149
same,change from baseline in proportion of days with usage of pain killer,"[1]; 40 mg, end of treatment",−9.95±14.214%
same,"change in proportion of days without pain (M-B&B), deep dyspareunia","[1]; 40 mg, end of treatment",8.15±43.207%
same,"change in proportion of days without pain (M-B&B), dysmenorrhea","[1]; 40 mg, end of treatment",73.98±29.567%
same,"change in proportion of days without pain (M-B&B), pelvic pain","[1]; 40 mg, end of treatment",31.00±36.746%
same,"change in proportion of days without pain (VAS), dysmenorrhea","[1]; 40 mg, end of treatment",78.45±29.838%
same,"change in proportion of days without pain (VAS), dyspareunia","[1]; 40 mg, end of treatment",4.50±40.796%
same,"change in proportion of days without pain (VAS), pelvic pain","[1]; 40 mg, end of treatment",36.59±34.849%
same,"mean VAS score, dysmenorrhea","[1]; 40 mg, end of treatment",0.918±4.3438 mm
same,"mean VAS score, dyspareunia","[1]; 40 mg, end of treatment",4.842±9.1145 mm
same,"mean VAS score, pelvic pain","[1]; 40 mg, end of treatment",3.335±6.4059 mm
same,subjects who achieved amenorrhea,"[1]; 40 mg, end of treatment",91.3%
same,"subjects without pain in M-B&B score, dysmenorrhea","[1]; 40 mg, end of treatment",93.2%
same,"subjects without pain in M-B&B score, dyspareunia","[1]; 40 mg, end of treatment",51.3%
same,"subjects without pain in M-B&B score, pelvic pain","[1]; 40 mg, end of treatment",52.4%
same,"subjects without pain in VAS score, dysmenorrhea","[1]; 40 mg, end of treatment",93.2%
same,"subjects without pain in VAS score, dyspareunia","[1]; 40 mg, end of treatment",48.7%
same,"subjects without pain in VAS score, pelvic pain","[1]; 40 mg, end of treatment",49.5% and 50%
same,CLr (L/hr) | Mean,FIG. 10,6.1047 L/h and 6.7583 L/h
same,Fe (%) | Mean,FIG. 10,0.919% and 1.963%
